Assay results taken from patent publication US20220378923A1, “BET DEGRADER” (KYOWA KIRIN CO., LTD., priority 2019, published 2022).

Test system: DCAF16 KO SU-DHL-4 cells
Experiment: Inhibitory effect on cell viability using SU-DHL-4 DCAF16 knock out (KO) cell line (Test Example 6)
Type: cell-based, human
Conditions: for Activity Attenuation Ratio: (SU-DHL-4 DCAF16 KO IC50)/(SU-DHL-4 WT IC50); for IC50: DCAF16 KO SU-DHL-4 cells, 72 hours, Cell Counting Kit-8, 50% inhibition of cell viability
Method: The human DLBCL cell line SU-DHL-4 was purchased from DSMZ. SU-DHL-4 was passaged using RPMI1640 medium containing 10 vol % FBS. After the Cas9 gene was introduced, the cells were cultured in the above medium containing 0.01 mg/mL blasticidin (InvivoGen, Cat No. ant-bl-1). After introduction of sgRNA, the cells were cultured in the above medium containing 0.0001 mg/mL puromycin dihydrochloride (SIGMA, Cat No. P9020-10 ML). The culture conditions were 37° C. and 5% CO2.
Edit-R Lentiviral hEF1α-Blast-Cas9 Nuclease Particles (Cat No. VCAS10126) was used as a lentivirus for expressing Cas9 in human cell lines. Three types of Edit-R Human DCAF16 Lentiviral sgRNA (Cat No. VSGH10142-246568260; DNA target sequence […] (SEQ ID NO: 1), Cat No. VSGH10142-246568262; DNA target sequence […] (SEQ ID NO: 2) and Cat No. VSGH10142-246568263; DNA target sequence […] (SEQ ID NO: 3)) were used as lentiviruses for introducing DCAF16 sgRNA. As a control, Edit-R Lentiviral sgRNA Non-targeting Control #1 (Cat No. VSGC10215) was used. All lentiviruses were purchased from Dharmacon and stored at −80° C. until use.
SU-DHL-4 was suspended at 4×10^5 cells/mL in RPMI 1640 without FBS, 0.25 mL of the suspension was added to a 24-well plate, and the cells were cultured overnight. The next day, 0.003 mL of virus particles of Edit-R Lentiviral hEF1α-Blast-Cas9 Nuclease Particles was added. After culturing in a CO2 incubator for 4 hours, RPMI 1640 containing 0.75 mL of 10 vol % FBS was added. After culturing in a CO2 incubator for about 48 hours, the medium was replaced with RPMI1640 containing 10 vol % FBS, and the cells were cultured in a CO2 incubator. Four days after infection, the medium was replaced with a medium containing 0.01 mg/mL blasticidin (InvivoGen, Cat No. ant-bl-1). Then, the cells were passaged once every 2 to 3 days and thus twice in total (that is, cultured for 1 week) to obtain SU-DHL-4/Cas9, which is a Cas9-introduced SU-DHL-4 cell line.
(6) sgRNA infection SU-DHL-4/Cas9 was suspended at 4×10^5 cells/mL in RPMI 1640 without FBS, 0.25 mL of the suspension was added to a 24-well plate, and the cells were cultured overnight. The next day, a total of 4 types of sgRNA virus particles, 1 type of Control and 3 types targeting DCAF16 were added to the respective wells by 0.03 mL. After culturing in a CO2 incubator for 5 hours, RPMI 1640 containing 0.75 mL of 10 vol % FBS was added.
After culturing in a CO2 incubator for about 48 hours, the medium was replaced with RPMI1640 containing 10 vol % FBS, and the cells were cultured in a CO2 incubator. Four days after infection, the medium was replaced with a medium supplemented with 0.01 mg/mL puromycin dihydrochloride (SIGMA, Cat No. P9020-10 ML). Then, the cells were passaged once or twice a week for 2 weeks, and a cell stock was prepared using CELLBANKER I plus (Takara Bio, Cat No. CB-021). Cell line stock was stored at −80° C. Using Edit-R Lentiviral sgRNA Non-targeting Control #1, the Negative Control sequence was introduced into the SU-DHL-4 cell line, which was referred to as SU-DHL-4 NC strain, and using Edit-R Human DCAF16 Lentiviral sgRNA, […] sequence (SEQ ID NO: 1) was introduced into the SU-DHL-4 cell line, which was referred to as SU-DHL-4 DCAF16 KO1 strain, […] sequence (SEQ ID NO: 2) was introduced into the SU-DHL-4 cell line, which was referred to as SU-DHL-4 DCAF16 KO2 strain, and […] sequence (SEQ ID NO: 3) was introduced into the SU-DHL-4 cell line, which was referred to as SU-DHL-4 DCAF16 KO 3 strain.
The cultured DCAF16 KO SU-DHL-4 cells were seeded at 2000 cells/well in a transparent 384-well plate (Code No. 781182, Greiner bio-one). After seeding, the cells were pre-cultured at 37° C. in a carbon dioxide gas incubator for 18 to 25 hours. […]

| Structure (SMILES) | IC50 (Homo sapiens) | IC50 | Activity Attenuation Ratio |
| --- | --- | --- | --- |
| CCC(=O)N1c2ccccc2[C@H](Nc2ccc(C(=O)NCCCNC(=O)c3ccc(N[C@@H]4C[C@H](C)N(C(=O)CC)c5ccccc54)cc3)cc2)C[C@@H]1C (relative stereo) [Compound 1a, N,N′-(Propane-1,3-diyl)bis(4-{[(2S*,4R*)-2-methyl-1-propionyl-1,2,3,4-tetrahydroquinolin-4-yl]amino}benzamide)] | 68.7 nM | – | 61 |
| CCC(=O)N1c2ccccc2[C@H](Nc2ccc(C(=O)NC3CCN(C(=O)c4ccc(N[C@@H]5C[C@H](C)N(C(=O)CC)c6ccccc65)cc4)CC3)cc2)C[C@@H]1C (relative stereo) [Compound 1c, 4-{[(2S*,4R*)-2-Methyl-1-propionyl-1,2,3,4-tetrahydroquinolin-4-yl]amino}-N-[1-(4-{[(2S*,4R*)-2-methyl-1-propionyl-1,2,3,4-tetrahydroquinolin-4-yl]amino}benzoyl)piperidin-4-yl]benzamide] | 385 nM | – | 131 |
| CCC(=O)N1c2ccccc2[C@H](Nc2ccc(NC(=O)CCNC(=O)c3ccc(N[C@@H]4C[C@H](C)N(C(=O)CC)c5ccccc54)cc3)cc2)C[C@@H]1C (relative stereo) [Compound 2f, 4-{[(2S,4R)-2-Methyl-1-propionyl-1,2,3,4-tetrahydroquinolin-4-yl]amino}-N-{3-[(4-{[(2S*,4R*)-2-methyl-1-propionyl-1,2,3,4-tetrahydroquinolin-4-yl]amino}phenyl)amino]-3-oxopropyl}benzamide] | 100 nM | – | 1111 |
| CCC(=O)N1c2ccccc2[C@H](Nc2ccc(NC(=O)C3CN(C(=O)c4ccc(N[C@@H]5C[C@H](C)N(C(=O)CC)c6ccccc65)cc4)C3)cc2)C[C@@H]1C (relative stereo) [Compound 2h, 1-(4-{[(2S,4R)-2-Methyl-1-propionyl-1,2,3,4-tetrahydroquinolin-4-yl]amino}benzoyl)-N-(4-{[(2S*,4R*)-2-methyl-1-propionyl-1,2,3,4-tetrahydroquinolin-4-yl]amino}phenyl)azetidine-3-carboxamide] | 12.2 nM | – | 408 |
| CCC(=O)N1c2ccccc2[C@H](Nc2ccc(NC(=O)CCSc3ccc(N[C@@H]4C[C@H](C)N(C(=O)CC)c5ccccc54)cc3)cc2)C[C@@H]1C (relative stereo) [Compound 4e, N-(4-{[(2S*,4R*)-2-Methyl-1-propionyl-1,2,3,4-tetrahydroquinolin-4-yl]amino}phenyl)-3-[(4-{[(2S,4R)-2-methyl-1-propionyl-1,2,3,4-tetrahydroquinolin-4-yl]amino}phenyl)thio]propanamide] | 75 nM | – | 250 |
| CCC(=O)N1c2ccccc2[C@H](NCCCCC(=O)NCc2cn(-c3ccc(N[C@@H]4C[C@H](C)N(C(=O)CC)c5ccccc54)cc3)nn2)C[C@@H]1C (relative stereo) [Compound 12f, 5-(((2S*,4R*)-2-Methyl-1-propionyl-1,2,3,4-tetrahydroquinolin-4-yl)amino)-N-((1-(4-(((2S,4R)-2-methyl-1-propionyl-1,2,3,4-tetrahydroquinolin-4-yl)amino)phenyl)-1H-1,2,3-triazol-4-yl)methyl)pentane amide] | – | > 10000 nM | >40284 |

Now from value to compound, other results behind:

| IC50 (Homo sapiens) | IC50 | Structure (SMILES) | Activity Attenuation Ratio |
| --- | --- | --- | --- |
| 90.3 nM | – | CCC(=O)N1c2ccccc2[C@H](Nc2ccc(NC(=O)N3CCN(C(=O)c4ccc(N[C@@H]5C[C@H](C)N(C(=O)CC)c6ccccc65)cc4)CC3)cc2)C[C@@H]1C (relative stereo) [Compound 6m, 4-(4-(((2S,4R)-2-Methyl-1-propionyl-1,2,3,4-tetrahydroquinolin-4-yl)amino)benzoyl)-N-(4-(((2S*,4R*)-2-methyl-1-propionyl-1,2,3,4-tetrahydroquinolin-4-yl)amino)phenyl)piperazine-1-carboxamide] | 1164 |
| – | 26 nM | CCC(=O)N1c2ccccc2[C@H](Nc2ccc(NC(=O)C#CCNC(=O)C3CCC(N[C@@H]4C[C@H](C)N(C(=O)CC)c5ccccc54)CC3)cc2)C[C@@H]1C (relative stereo) [Compound 8g, (1R,4r)-4-(((2S*,4R*)-2-Methyl-1-propionyl-1,2,3,4-tetrahydroquinolin-4-yl)amino)-N-(4-((4-(((2S,4R)-2-methyl-1-propionyl-1,2,3,4-tetrahydroquinolin-4-yl)amino)phenyl)amino)-4-oxobut-2-yn-1-yl)cyclohexane-1-carboxamide] | 3174 |
| – | 263 nM | CCC(=O)N1c2ccccc2[C@H](N[C@H]2CC[C@H](NC(=O)C#CCNC(=O)[C@H]3CC[C@H](N[C@@H]4C[C@H](C)N(C(=O)CC)c5ccccc54)CC3)CC2)C[C@@H]1C (relative stereo) [Compound 9d, (1R,4R)-4-(((2S*,4R*)-2-Methyl-1-propionyl-1,2,3,4-tetrahydroquinolin-4-yl)amino)-N-(4-(((1R,4R)-4-(((2S,4R)-2-methyl-1-propionyl-1,2,3,4-tetrahydroquinolin-4-yl)amino)cyclohexyl)amino)-4-oxobut-2-yn-1-yl)cyclohexane-1-carboxamide] | 348 |
| 180 nM | – | CCC(=O)N1c2ccccc2[C@H](Nc2ccc(-n3cc(CNC(=O)N4CCC(N[C@@H]5C[C@H](C)N(C(=O)CC)c6ccccc65)CC4)nn3)cc2)C[C@@H]1C (relative stereo) [Compound 10b, 4-(((2S*,4R*)-2-Methyl-1-propionyl-1,2,3,4-tetrahydroquinolin-4-yl)amino)-N-((1-(4-(((2S,4R)-2-methyl-1-propionyl-1,2,3,4-tetrahydroquinolin-4-yl)amino)phenyl)-1H-1,2,3-triazol-4-yl)methyl)piperidine-1-carboxamide] | 524 |
| 142 nM | – | CCC(=O)N1c2ccccc2[C@H](NCc2ccc(C(=O)N3CC(C(=O)Nc4ccc(N[C@@H]5C[C@H](C)N(C(=O)CC)c6ccccc65)cc4)C3)cc2)C[C@@H]1C (relative stereo) [Compound 10g, 1-(4-((((2S*,4R*)-2-Methyl-1-propionyl-1,2,3,4-tetrahydroquinolin-4-yl)amino)methyl)benzoyl)-N-(4-(((2S,4R)-2-methyl-1-propionyl-1,2,3,4-tetrahydroquinolin-4-yl)amino)phenyl)azetidine-3-carboxamide] | 154 |
| 595 nM | – | CCC(=O)N1c2ccccc2[C@H](NCCCCCCCC(=O)Nc2ccc(N[C@@H]3C[C@H](C)N(C(=O)CC)c4ccccc43)cc2)C[C@@H]1C (relative stereo) [Compound 12h, 8-(((2S*,4R*)-2-Methyl-1-propionyl-1,2,3,4-tetrahydroquinolin-4-yl)amino)-N-(4-(((2S,4R)-2-methyl-1-propionyl-1,2,3,4-tetrahydroquinolin-4-yl)amino)phenyl)octanamide] | 191 |
